Experimental data taken from patent US7763728B2, “Tetrahydropyridothiophenes” (4SC AG, priority 2005, dated 2010).
Each block holds one compound with its values, some of them ahead of it.

Assays:
[1] = system: RKO colon adenocarcinoma cells (RKOp27) arrested by the expression of ectopic p27Kip1; experiment: Alamar Blue cell viability assay on RKOp27 cells arrested by p27Kip1 expression induced by Ponasterone A; format: cell-based; details: Homo sapiens, 72 hours incubation, 10 μM Ponasterone A, read-out: IC50 RKO p27 induced (arrested)
Summary of the method: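 RKOp27 cells, 15000/well, held in DMEM with 10% FCS and with or without 10 μM Ponasterone A to induce p27Kip1 arrest. Compound dilutions added 24 h after seeding, then 72 h at 37 °C in quadruplicate. Alamar Blue fluorescence (544/590 nm) gave % viability relative to untreated cells.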

[2] = system: RKO (RKOp27) human colon adenocarcinoma cells; experiment: Alamar Blue cell viability assay, anti-proliferative/cytotoxic activity on proliferating (uninduced) RKOp27 cells; format: cell-based; details: 72 hours incubation, absence of the inducer Ponasterone A, read-out: IC50 RKO p27 uninduced (proliferating)
Summary of the method: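 RKOp27 subclones seeded at 5000 cells/well, compounds added after 24 h in DMEM/10% FCS, quadruplicates, 72 h at 37 °C, 5% CO2. Alamar Blue fluorescence (ex 544/em 590 nm) normalised to untreated cells (1% DMSO medium) as 100%; IC50 from concentration-effect curves.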

IC50 [1]: > 100000 nM
Compound: COc1ccccc1C(C)CC(=O)Nc1sc2c(c1C#N)CCN(C(=O)CCc1ccccn1)C2 (racemic) [Example 94, (RS)—N-[3-Cyano-6-(3-pyridin-2-yl-propanoyl)-4,5,6,7-tetrahydro-thieno[2,3-c]pyridin-2-yl]-3-(2-methoxy-phenyl)-butyramide]
IC50 [2]: 300 to 2000 nM

IC50 [1]: ≥ 10000 nM
Compound: COc1ccccc1C(C)CC(=O)Nc1sc2c(c1C#N)CCN(C(=O)CCc1nccn1C)C2 (racemic) [Example 113, (RS)—N-{3-Cyano-6-[3-(1-methyl-1H-imidazol-2-yl)-propanoyl]-4,5,6,7-tetrahydro-thieno[2,3-c]pyridin-2-yl}-3-(2-methoxy-phenyl)-butyramide]
IC50 [2]: 300 to 2000 nM

IC50 [1]: > 100000 nM
Compound: COc1ccc(C)cc1CCC(=O)Nc1sc2c(c1C#N)CCN(C(=O)Cc1ccncc1)C2 [Example 74, N-[3-Cyano-6-(2-pyridin-4-yl-ethanoyl)-4,5,6,7-tetrahydro-thieno[2,3-c]pyridin-2-yl]-3-(2-methoxy-5-methyl-phenyl)-propionamide]
IC50 [2]: ≤ 300 nM

IC50 [1]: ≥ 40000 nM
Compound: COc1ccccc1C(C)CC(=O)Nc1sc2c(c1C#N)CCN(C(=O)CCn1ccnc1)C2 (racemic) [Example 99, (RS)—N-[3-Cyano-6-(3-imidazol-1-yl-propanoyl)-4,5,6,7-tetrahydro-thieno[2,3-c]pyridin-2-yl]-3-(2-methoxy-phenyl)-butyramide]
IC50 [2]: 300 to 2000 nM

IC50 [1]: ≥ 40000 nM
Compound: COc1ccccc1CCC(=O)Nc1sc2c(c1C#N)CCN(C(=O)Cn1ccnc1C)C2 [Example 130, N-{3-Cyano-6-[2-(2-methyl-imidazol-1-yl)-ethanoyl]-4,5,6,7-tetrahydro-thieno[2,3-c]pyridin-2-yl}-3-(2-methoxy-phenyl)-propionamide]
IC50 [2]: ≤ 300 nM

IC50 [1]: ≥ 40000 nM
Compound: COc1ccc(C)cc1CCC(=O)Nc1sc2c(c1C#N)CCN(C(=O)Cn1ccnc1C)C2 [Example 132, N-{3-Cyano-6-[2-(2-methyl-imidazol-1-yl)-ethanoyl]-4,5,6,7-tetrahydro-thieno[2,3-c]pyridin-2-yl}-3-(2-methoxy-5-methyl-phenyl)-propionamide]
IC50 [2]: ≤ 300 nM

IC50 [1]: ≥ 10000 nM
Compound: CCOc1ccccc1C(C)CC(=O)Nc1sc2c(c1C#N)CCN(C(=O)Cn1ccnc1C)C2 (racemic) [Example 128, (RS)—N-{3-Cyano-6-[2-(2-methyl-imidazol-1-yl)-ethanoyl]-4,5,6,7-tetrahydro-thieno[2,3-c]pyridin-2-yl}-3-(2-ethoxy-phenyl)-butyramide]
IC50 [2]: ≤ 300 nM

IC50 [1]: ≥ 40000 nM
Compound: COc1ccccc1CCC(=O)Nc1sc2c(c1C#N)CCN(C(=O)CCn1ccnc1)C2 [Example 101, N-[3-Cyano-6-(3-imidazol-1-yl-propanoyl)-4,5,6,7-tetrahydro-thieno[2,3-c]pyridin-2-yl]-3-(2-methoxy-phenyl)-propionamide]
IC50 [2]: ≤ 300 nM

IC50 [1]: ≥ 10000 nM
Compound: CCOc1ccccc1C(C)CC(=O)Nc1sc2c(c1C#N)CCN(C(=O)Cn1cnc(C)c1)C2 (racemic) [Example 136, (RS)—N-{3-Cyano-6-[2-(4-methyl-imidazol-1-yl)-ethanoyl]-4,5,6,7-tetrahydro-thieno[2,3-c]pyridin-2-yl}-3-(2-ethoxy-phenyl)-butyramide]
IC50 [2]: 300 to 2000 nM

IC50 [1]: ≥ 40000 nM
Compound: CCOc1ccccc1C(C)CC(=O)Nc1sc2c(c1C#N)CCN(C(=O)CCn1ccnc1)C2 (racemic) [Example 100, (RS)—N-[3-Cyano-6-(3-imidazol-1-yl-propanoyl)-4,5,6,7-tetrahydro-thieno[2,3-c]pyridin-2-yl]-3-(2-ethoxy-phenyl)-butyramide]
IC50 [2]: 300 to 2000 nM

IC50 [1]: ≥ 40000 nM
Compound: COc1ccccc1CCC(=O)Nc1sc2c(c1C#N)CCN(C(=O)Cn1ccnc1)C2 [Example 84, N-[3-Cyano-6-(2-imidazol-1-yl-ethanoyl)-4,5,6,7-tetrahydro-thieno[2,3-c]pyridin-2-yl]-3-(2-methoxy-phenyl)-propionamide]
IC50 [2]: ≤ 300 nM

IC50 [1]: ≥ 10000 nM
Compound: CCOc1ccccc1C(C)CC(=O)Nc1sc2c(c1C#N)CCN(C(=O)CCn1cnc(C)c1)C2 (racemic) [Example 153, (RS)—N-{3-Cyano-6-[3-(4-methyl-imidazol-1-yl)-propanoyl]-4,5,6,7-tetrahydro-thieno[2,3-c]pyridin-2-yl}-3-(2-ethoxy-phenyl)-butyramide]
IC50 [2]: 300 to 2000 nM

IC50 [1]: ≥ 10000 nM
Compound: COc1ccc(C)cc1CCC(=O)Nc1sc2c(c1C#N)CCN(C(=O)CCc1nccn1C)C2 [Example 118, N-{3-Cyano-6-[3-(1-methyl-1H-imidazol-2-yl)-propanoyl]-4,5,6,7-tetrahydro-thieno[2,3-c]pyridin-2-yl}-3-(2-methoxy-5-methyl-phenyl)-propionamide]
IC50 [2]: 300 to 2000 nM

IC50 [1]: ≥ 10000 nM
Compound: COc1ccccc1C(C)CC(=O)Nc1sc2c(c1C#N)CCN(C(=O)CCc1ccncc1)C2 (racemic) [Example 120, (RS)—N-[3-Cyano-6-(3-pyridin-4-yl-propanoyl)-4,5,6,7-tetrahydro-thieno[2,3-c]pyridin-2-yl]-3-(2-methoxy-phenyl)-butyramide]
IC50 [2]: ≤ 300 nM

IC50 [1]: > 100000 nM
Compound: COc1cccc(C(C)CC(=O)Nc2sc3c(c2C#N)CCN(C(=O)CCc2ccncc2)C3)c1 (racemic) [Example 79, (RS)—N-[3-Cyano-6-(3-pyridin-4-yl-propanoyl)-4,5,6,7-tetrahydro-thieno[2,3-c]pyridin-2-yl]-3-(3-methoxy-phenyl)-butyramide]
IC50 [2]: 300 to 2000 nM

Further lines, the compound ahead of its results:

Compound: COc1ccccc1C(C)CC(=O)Nc1sc2c(c1C#N)CCN(C(=O)Cc1ccccn1)C2 (racemic) [Example 62, (RS)—N-[3-Cyano-6-(2-pyridin-2-yl-ethanoyl)-4,5,6,7-tetrahydro-thieno[2,3-c]pyridin-2-yl]-3-(2-methoxy-phenyl)-butyramide]
IC50 [1]: > 100000 nM
IC50 [2]: ≤ 300 nM

Compound: COc1cccc(CCC(=O)Nc2sc3c(c2C#N)CCN(C(=O)Cn2ccnc2)C3)c1 [Example 55, N-[3-Cyano-6-(2-imidazol-1-yl-ethanoyl)-4,5,6,7-tetrahydro-thieno[2,3-c]pyridin-2-yl]-3-(3-methoxy-phenyl)-propionamide]
IC50 [1]: ≥ 40000 nM
IC50 [2]: 300 to 2000 nM

Compound: COc1ccc(C)cc1CCC(=O)Nc1sc2c(c1C#N)CCN(C(=O)CCc1cc(C)ccn1)C2 [Example 34, N-{3-Cyano-6-[3-(4-methyl-pyridin-2-yl)-propanoyl]-4,5,6,7-tetrahydro-thieno[2,3-c]pyridin-2-yl}-3-(2-methoxy-5-methyl-phenyl)-propionamide]
IC50 [1]: > 100000 nM
IC50 [2]: 300 to 2000 nM

Compound: COc1cccc(CCC(=O)Nc2sc3c(c2C#N)CCN(C(=O)CCn2ccnc2)C3)c1 [Example 20, N-[3-Cyano-6-(3-imidazol-1-yl-propanoyl)-4,5,6,7-tetrahydro-thieno[2,3-c]pyridin-2-yl]-3-(3-methoxy-phenyl)-propionamide]
IC50 [1]: ≥ 40000 nM
IC50 [2]: 300 to 2000 nM

Compound: CCOc1cccc(C(C)CC(=O)Nc2sc3c(c2C#N)CCN(C(=O)Cc2ccncc2)C3)c1 (racemic) [Example 69, (RS)—N-[3-Cyano-6-(2-pyridin-4-yl-ethanoyl)-4,5,6,7-tetrahydro-thieno[2,3-c]pyridin-2-yl]-3-(3-ethoxy-phenyl)-butyramide]
IC50 [1]: > 100000 nM
IC50 [2]: 300 to 2000 nM

Compound: CCOc1ccccc1CCC(=O)Nc1sc2c(c1C#N)CCN(C(=O)COCCOC)C2 [Example 25, N-{3-Cyano-6-[2-(2-methoxy-ethoxy)-ethanoyl]-4,5,6,7-tetrahydro-thieno[2,3-c]pyridin-2-yl}-3-(2-ethoxy-phenyl)-propionamide]
IC50 [1]: > 100000 nM
IC50 [2]: ≤ 300 nM

Compound: COc1cccc(CCC(=O)Nc2sc3c(c2C#N)CCN(C(=O)CCCO)C3)c1 [Example 21, N-[3-Cyano-6-(4-hydroxy-butanoyl)-4,5,6,7-tetrahydro-thieno[2,3-c]pyridin-2-yl]-3-(3-methoxy-phenyl)-propionamide]
IC50 [1]: > 100000 nM
IC50 [2]: 300 to 2000 nM

Compound: CCCC(=O)N1CCc2c(sc(NC(=O)CCc3cc(C)ccc3OC)c2C#N)C1 [Example 35, N-(6-Butyryl-3-cyano-4,5,6,7-tetrahydro-thieno[2,3-c]pyridin-2-yl)-3-(2-methoxy-5-methyl-phenyl)-propionamide]
IC50 [1]: > 100000 nM
IC50 [2]: ≤ 300 nM

Compound: COc1ccccc1CCC(=O)Nc1sc2c(c1C#N)CCN(C(=O)Cc1cccnc1)C2 [Example 2, N-[3-Cyano-6-(2-pyridin-3-yl-ethanoyl)-4,5,6,7-tetrahydro-thieno[2,3-c]pyridin-2-yl]-3-(2-methoxy-phenyl)-propionamide]
IC50 [1]: ≥ 40000 nM
IC50 [2]: ≤ 300 nM

Compound: COCCC(=O)N1CCc2c(sc(NC(=O)CCc3cccc(OC)c3)c2C#N)C1 [Example 12, N-[3-Cyano-6-(3-methoxy-propanoyl)-4,5,6,7-tetrahydro-thieno[2,3-]pyridin-2-yl]-3-(3-methoxy-phenyl)-propionamide]
IC50 [1]: > 100000 nM
IC50 [2]: 300 to 2000 nM

Compound: CCOc1ccccc1C(C)CC(=O)Nc1sc2c(c1C#N)CCN(C(=O)Cc1ccncc1)C2 (racemic) [Example 71, (RS)—N-[3-Cyano-6-(2-pyridin-4-yl-ethanoyl)-4,5,6,7-tetrahydro-thieno[2,3-c]pyridin-2-yl]-3-(2-ethoxy-phenyl)-butyramide]
IC50 [1]: > 100000 nM
IC50 [2]: ≤ 300 nM

Compound: COc1ccc(C)cc1CCC(=O)Nc1sc2c(c1C#N)CCN(C(=O)Cc1ccccn1)C2 [Example 60, N-[3-Cyano-6-(2-pyridin-2-yl-ethanoyl)-4,5,6,7-tetrahydro-thieno[2,3-c]pyridin-2-yl]-3-(2-methoxy-5-methyl-phenyl)-propionamide]
IC50 [1]: > 100000 nM
IC50 [2]: ≤ 300 nM
